Laboratory results from paper PMC3582829 (European journal of medicinal chemistry, 2012).
Read-outs that look alike come from different tables or passages of the source.

Experiments:
[1] = tested on: T. cruzi amastigotes; experiment: T. cruzi amastigote assay in Vero cells; type: cell-based, Trypanosoma cruzi; conditions: intracellular T. cruzi
[2] = target: TcFPPS (Trypanosoma cruzi, UniProt Q8WS26); type: biochemical
[3] = tested on: T. gondii tachyzoites; conditions: positive control, cited from earlier work
[4] = tested on: T. cruzi amastigotes; conditions: positive control; cited from earlier work

Row | SMILES | activity against T. cruzi amastigotes (in words) [1] | activity towards TcFPPS (in words) [2] | ED50 T. gondii ([3]; listed as risedronate) [µM] | ED50 T. gondii [3] | ED50 T. cruzi amastigotes [4]
1 | CCCCCC(C)NCC(P(=O)(O)O)P(=O)(O)O (stereo not drawn) [Compound 18, 1-[(n-Hept-2-ylamino)ethyl] 1,1-bisphosphonic Acid] | almost devoid of antiparasitic activity | almost devoid of antiparasitic activity |  |  | 
2 | CCCCCCCNCC(O)(P(=O)(O)O)P(=O)(O)O [Compound 21, 1-[(n-Heptylamino)ethyl]-1-hydroxy-1,1-bisphosphonic Acid] | almost devoid of antiparasitic activity | almost devoid of antiparasitic activity |  |  | 
3 | CCCCCCCSCC(P(=O)(O)O)P(=O)(O)O [Compound 36, 1-[(n-Heptylthio)ethyl]-1,1-bisphosphonic Acid] | devoid of anti-T. cruzi activity | devoid of anti-T. cruzi activity |  |  | 
4 | O=P(O)(O)C(O)(Cc1cccnc1)P(=O)(O)O [Risedronate, risedronate] |  |  | 2.4 | 2.4 ± 0.7 [29] μM | 55.0 ± 5.0 [68] μM
